Laboratory results as given in BindingDB's records for doi:10.1021/jm3004174 (Taiho Pharmaceutical, 2012).

assay: Inhibition of dUTPase in human HeLa S3 cells assessed as potentiation of 1 uM FdUrd-induced decrease in cell density incubated for 24 hrs by crystal violet assay

Row | EC50 [nM] | Structure (SMILES)
1 | 70 | CC[C@@](O)(Cn1nncc1CCCCn1ccc(=O)[nH]c1=O)c1ccc(F)c(OCC2CC2)c1
2 | 260 | O=c1ccn(CCCCc2cnnn2CCc2cccc(OCC3CC3)c2)c(=O)[nH]1
3 | 50 | CC[C@@H](Cn1nncc1CCCCn1ccc(=O)[nH]c1=O)c1cccc(OCC2CC2)c1
4 | 1100 | O=c1ccn(CCCc2cnnn2CC(c2ccccc2)c2ccccc2)c(=O)[nH]1
